From PubChem BioAssay AID743394 (Broad Institute, 2014) come the findings set out here.

Calls of active or inactive are those of the source.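 Rule for the calls: active = 40% activation versus positive control reached by fitted dose-response curve at or below highest valid tested dose; inconclusive = poor fit quality, or flat fit with activation between 30% and 70%; inactive = the rest.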 Some results are limits rather than exact numbers.

For this assay, the system named is 68-5-11 mouse fibroblast XiGFP reporter, % GFP-positive imaging, 3 d. The experiment in a line: inactive X chromosome reactivation in XiGFP fibroblasts, dose response, imaging, 68-5-11 mouse fibroblasts, GFP, cherry-pick (AID 743394).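 Note: sensitizer 5-aza-dC present in the wells at 0.5 mM final.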 The following applies: cells co-treated with 5-aza-dC sensitizer.
Regarding `COc1ccc(NC(=O)Nc2ccc3c(c2)CC(=O)N([C@H](C)CO)C[C@H](C)[C@@H](CN(C)S(=O)(=O)c2ccc(F)cc2)O3)cc1`, the AC40 was 18600 nM.
Consider `O=[N+]([O-])c1ccc(C2=NN(c3ccccc3)C(c3ccco3)C2)cc1` (stereo not drawn), for which the AC40 was 2250 nM.
Take `CCN1/C(=C/C=C/c2oc3ccc(-c4ccccc4)cc3[n+]2CC)Oc2ccc(-c3ccccc3)cc21`: the AC40 is 2.28 nM.
In the case of `CN(C)S(=O)(=O)c1ccc2c(c1)/C(=C/c1cc3c([nH]1)CCCC3)C(=O)N2`, the AC40 is 1580 nM.
With `O=C(NCc1ccccc1)c1cccc2c1C(=O)c1ccc(/C=C/c3ccccc3)cc1S2(=O)=O`, the AC40 was 8500 nM.
For the molecule `CCN1C(=O)[C@@H]2Cc3c([nH]c4ccccc34)C(c3cc(OC)c(OC)c(OC)c3)N2C1=S` (stereo partly drawn), the AC40 was > 19500 nM (inactive).
Under `Cc1nonc1NC(=O)CSc1nc2c(C)cccc2cc1C#N` stands 6500 nM.
Turning to `COc1cc2c3nnc(-c4ccccc4)c-3cn(Cc3ccccc3F)c2cc1OC`, the AC40 is 1270 nM.
